Measurements as given in the supplement of paper PMC11061612.

Experiments:
[1] = compound: COc1nnc2ccc(N3CCC(c4ccc(OCCN5CCN(C)C(=O)[C@H]5C)cc4)CC3)nn12 [AZD5153]; details: max 1 µM
Method in brief: (§1)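 Plates with 1536 wells received cancer cell lines in 7.5 μl of DMEM/F12 or RPMI containing 10% FBS. After 24 hours at 37°C and 5% CO2, cells were dosed for 72 hours with final DMSO typically 0.2%, and viability was read by CellTiter-Glo 2.0 luminescence scaled between blank-well and DMSO-well means. The single-agent IC50 was taken from a logistic fit of the dose responses made with a non-linear mixed effects model, that logistic curve having two parameters.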

[2] = compound: CN(CC[C@H](CSC1=CC=CC=C1)NC2=C(C=C(C=C2)S(=O)(=O)NC(=O)C3=CC=C(C=C3)N4CCC(CC4)[C@H](C5=CC=CC=C5C6=CC=C(C=C6)Cl)O)S(=O)(=O)C(F)(F)F)CCO [AZD4320]; details: max 1 µM
Method in brief: as §1

[3] = compound: COc1cccc(OCCCN)c1-c1cc(Nc2cnc(C#N)cn2)n[nH]1 [Prexasertib]; details: max 1 µM
Method in brief: as §1

[4] = compound: CC1=CN2[C@@H](C1)C=NC3=CC(=C(C=C3C2=O)OC)OCCCCCOC4=C(C=C5C(=C4)N=C[C@@H]6CC(=CN6C5=O)C)OC [SG3199]; details: max 0.001 µM
Method in brief: as §1

[5] = compound: C[C@@H](Oc1cc(-c2cnn(C3CCNCC3)c2)cnc1N)c1c(Cl)ccc(F)c1Cl [Crizotinib]; details: max 10 µM
Method in brief: as §1

[6] = compound: CC(=O)Nc1cccc(-n2c(=O)n(C3CC3)c(=O)c3c(Nc4ccc(I)cc4F)n(C)c(=O)c(C)c32)c1 [Trametinib]; details: max 1 µM
Method in brief: as §1

[7] = compound: Cc1nc(-c2cn3c(n2)-c2ccc(-c4cnn(C(C)(C)C(N)=O)c4)cc2OCC3)n(C(C)C)n1 [Taselisib]; details: max 10 µM
Method in brief: as §1

[8] = compound: COc1cc(Nc2ncc3c(n2)-c2ccc(Cl)cc2C(c2c(F)cccc2OC)=NC3)ccc1C(=O)O [Alisertib]; details: max 10 µM
Method in brief: as §1

[9] = compound: Cc1cc2ncnn2cc1Nc1ncc2c(n1)n(C1CCOCC1)c(=O)n2C [AZD7648]; details: max 10 µM
Method in brief: as §1

[10] = compound: CC(C)n1c(=O)n(C)c2cnc3cc(F)c(-c4ccc(OCCCN5CCCCC5)nc4)cc3c21 [AZD1390]; details: max 0.3 µM
Method in brief: as §1

[11] = compound: O=C(c1cc(Cc2n[nH]c(=O)c3ccccc23)ccc1F)N1CCN(C(=O)C2CC2)CC1 [Olaparib]; details: max 10 µM
Method in brief: as §1

[12] = compound: C=CCn1c(=O)c2cnc(Nc3ccc(N4CCN(C)CC4)cc3)nc2n1-c1cccc(C(C)(C)O)n1 [AZD1775]; details: max 3 µM
Method in brief: as §1

[13] = compound: CS(=O)(=O)CCNCc1ccc(-c2ccc3ncnc(Nc4ccc(OCc5cccc(F)c5)c(Cl)c4)c3c2)o1 [Lapatinib]; details: max 10 µM
Method in brief: as §1

[14] = compound: CCN(CCO)CCCOc1ccc2c(Nc3cc(CC(=O)Nc4cccc(F)c4)[nH]n3)ncnc2c1 [AZD2811]; details: max 1 µM
Method in brief: as §1

[15] = compound: C[C@@H]1COCCN1C2=NC(=NC(=C2)C3(CC3)[S@](=N)(=O)C)C4=C5C=CNC5=NC=C4 [AZD6738]; details: max 10 µM
Method in brief: as §1

[16] = compound: NC1(c2ccc(-c3nc4ccn5c(=O)[nH]nc5c4cc3-c3ccccc3)cc2)CCC1 [MK-2206]; details: max 10 µM
Method in brief: as §1

[17] = compound: COc1cc2ncnc(Nc3ccc(F)c(Cl)c3)c2cc1OCCCN1CCOCC1 [Gefitinib]; details: max 10 µM
Method in brief: as §1

[18] = compound: Cc1c2c(nn1C)CSCc1cc(n(C)n1)CSc1cc(c3ccccc3c1)OCCCc1c(C(=O)O)n(C)c3c-2c(Cl)ccc13 [AZD5991]; details: max 1 µM
Method in brief: as §1

[19] = compound: COc1cccc2c1C(=O)c1c(O)c3c(c(O)c1C2=O)C[C@@](O)(C(=O)CO)C[C@@H]3O[C@H]1C[C@H](N)[C@H](O)[C@H](C)O1 [Doxorubicin]; details: max 1 µM
Method in brief: as §1

[20] = compound: Cn1cnc2c(F)c(Nc3ccc(Br)cc3Cl)c(C(=O)NOCCO)cc21 [Selumetinib]; details: max 10 µM
Method in brief: as §1

[21] = compound: C1CN(CCC1(C(=O)N[C@@H](CCO)C2=CC=C(C=C2)Cl)N)C3=NC=NC4=C3C=CN4 [Capivasertib]; details: max 10 µM
Method in brief: as §1

[22] = compound: C[C@@H](c1ccc2nccn2c1)n1nnc2ncc(-c3cnn(C)c3)nc21 [Savolitinib]; details: max 1 µM
Method in brief: as §1

[23] = compound: CC1(C)CCC(CN2CCN(c3ccc(C(=O)NS(=O)(=O)c4ccc(NCC5CCOCC5)c([N+](=O)[O-])c4)c(Oc4cnc5[nH]ccc5c4)c3)CC2)=C(c2ccc(Cl)cc2)C1 [Venetoclax]; details: max 1 µM
Method in brief: as §1

[24] = compound: CN(C)CCCOc1ccc(-c2ccc3ncc4c(c3c2)n(C2CCOCC2)c(=O)n4C)cn1 [AZD0156]; details: max 3 µM
Method in brief: as §1

[25] = compound: CCc1c2c(nc3ccc(O)cc13)-c1cc3c(c(=O)n1C2)COC(=O)[C@]3(O)CC [SN-38]; details: max 0.3 µM
Method in brief: as §1

[26] = compound: CC(=O)c1c(C)c2cnc(Nc3ccc(N4CCNCC4)cn3)nc2n(C2CCCC2)c1=O [Palbociclib]; details: max 10 µM
Method in brief: as §1

[27] = compound: C[C@@H](Nc1cc(F)cc(F)c1)c1cc(C(=O)N(C)C)cc2c(=O)cc(N3CCOCC3)oc12 [AZD8186]; details: max 3 µM
Method in brief: as §1

[28] = compound: CC1=C(C(=CC=C1)Cl)NC(=O)C2=CN=C(S2)NC3=CC(=NC(=N3)C)N4CCN(CC4)CCO [Dasatinib]; details: max 2 µM
Method in brief: as §1

Cell Line	IC50, cell viability 72 h [1] [µM]	IC50, cell viability 72 h [2] [µM]	IC50, cell viability 72 h [3] [µM]	IC50, cell viability 72 h [4] [µM]	IC50, cell viability 72 h [5] [µM]	IC50, cell viability 72 h [6] [µM]	IC50, cell viability 72 h [7] [µM]	IC50, cell viability 72 h [8] [µM]	IC50, cell viability 72 h [9] [µM]	IC50, cell viability 72 h [10] [µM]	IC50, cell viability 72 h [11] [µM]	IC50, cell viability 72 h [12] [µM]	IC50, cell viability 72 h [13] [µM]	IC50, cell viability 72 h [14] [µM]	IC50, cell viability 72 h [15] [µM]	IC50, cell viability 72 h [16] [µM]	IC50, cell viability 72 h [17] [µM]	IC50, cell viability 72 h [18] [µM]	IC50, cell viability 72 h [19] [µM]	IC50, cell viability 72 h [20] [µM]	IC50, cell viability 72 h [21] [µM]	IC50, cell viability 72 h [22] [µM]	IC50, cell viability 72 h [23] [µM]	IC50, cell viability 72 h [24] [µM]	IC50, cell viability 72 h [25] [µM]	IC50, cell viability 72 h [26] [µM]	IC50, cell viability 72 h [27] [µM]	IC50, cell viability 72 h [28] [µM]
RH-1 (Ewing's Sarcoma)	> 1	0.83	0.0184	> 0.001	2.25	> 1	6.26	0.039	> 10	> 0.3	> 10	0.0951	> 10	0.0226	2	> 10	> 10	0.55	0.0561	> 10	> 10	> 1	> 1	> 3	0.00435	> 10	> 3	> 2
SNU-C5 (Colorectal Carcinoma)	0.578	> 1	0.0218	> 0.001	> 10	0.563	2.01	9.36	> 10	> 0.3	> 10	0.507	> 10	> 1	4		> 10	> 1	> 1	> 10	> 10	> 1	> 1	> 3	0.0435	> 10	> 3	> 2
SUIT-2 (Pancreatic Carcinoma)	> 1	> 1	0.178	> 0.001	> 10	0.478	> 10	> 10	> 10	> 0.3	> 10	1.86	> 10	> 1	> 10	> 10	> 10	> 1	> 1	> 10	> 10	> 1	> 1	> 3	0.0326	> 10	> 3	> 2
SW756 (Cervical Carcinoma)	> 1	> 1	> 1	> 0.001	> 10	> 1	> 10	> 10	> 10	> 0.3	> 10	> 3	> 10	> 1	> 10	> 10	> 10	> 1	> 1	> 10	> 10	> 1	> 1	> 3	0.0323	> 10	> 3	> 2
SW780 (Bladder Carcinoma)	> 1	> 1	> 1	> 0.001	> 10	> 1	> 10	> 10	> 10	> 0.3	> 10	> 3	> 10	> 1	> 10	> 10	> 10	> 1	> 1	> 10	> 10	> 1	> 1	> 3	0.247	> 10	> 3	> 2
TGBC24TKB (Biliary Tract Carcinoma)	0.665	> 1	0.0494	> 0.001	9.9	0.933	0.561	1.86	> 10	> 0.3	> 10	0.815	8.01	0.923	7.4	> 10	> 10	> 1	> 1	> 10	> 10	> 1	> 1	> 3	> 0.3	> 10	> 3	> 2
